Laboratory results taken from ChEMBL document CHEMBL3045140, “Synthesis, docking studies and antioxidant activity of some chalcone and aurone derivatives” (Med Chem Res, 2013).
≈ marks a conversion by molar mass, not a printed value.

Columns and labels:
Type in all cases: functional
[1] = Antioxidant activity assessed as H2O2 scavenging activity after 10 min by spectrophotometeric analysis
[2] = Antioxidant activity assessed as iron chelating activity after 10 min by spectrophotometeric analysis
[3] = test system: Radical scavenging activity; assay: Antioxidant activity assessed as DPPH free radical scavenging activity after 30 min by spectrophotometeric analysis
[4] = Antioxidant activity assessed as reduction of Fe3+ to Fe2+ after 20 min by spectrophotometeric analysis

IC50 [1] [µg/mL] | IC50 [2] [µg/mL] | IC50 [3] [µg/mL] | IC50 [4] [µg/mL] | SMILES | Activity [1] | Activity [3]
89.59 (≈ 298 µM) | 159.22 (≈ 530 µM) | 132.22 (≈ 440 µM) | 111.79 (≈ 372 µM) | COc1ccc(/C=C/C(=O)c2cc(O)ccc2O)cc1OC | Dose-dependent effect | Dose-dependent effect
445.92 (≈ 2530 µM) | 126.12 (≈ 716 µM) | 98.77 (≈ 561 µM) | 53.24 (≈ 302 µM) | O=C1O[C@H]([C@@H](O)CO)C(O)=C1O [ASCORBIC ACID] | – | –
70.1 (≈ 233 µM) | 166.73 (≈ 555 µM) | 35.2 (≈ 117 µM) | 134.45 (≈ 448 µM) | COc1ccc(/C=C/C(=O)c2ccc(O)cc2O)cc1OC | Dose-dependent effect | Dose-dependent effect
178.13 (≈ 653 µM) | 179.18 (≈ 657 µM) | 266.12 (≈ 976 µM) | 188.31 (≈ 691 µM) | O=C1/C(=C/c2ccc(Cl)cc2)Oc2cc(O)ccc21 [6-HYDROXY-4'-CHLORO AURONE] | Dose-dependent effect | Dose-dependent effect
129.02 (≈ 470 µM) | 159.97 (≈ 582 µM) | 264.95 (≈ 964 µM) | 155.87 (≈ 567 µM) | O=C(/C=C/c1ccc(Cl)cc1)c1ccc(O)cc1O | Dose-dependent effect | Dose-dependent effect
135.88 (≈ 480 µM) | 140.16 (≈ 495 µM) | 65.8 (≈ 232 µM) | 53.6 (≈ 189 µM) | CN(C)c1ccc(/C=C/C(=O)c2ccc(O)cc2O)cc1 | Dose-dependent effect | Dose-dependent effect
153.85 (≈ 543 µM) | 90.81 (≈ 321 µM) | 24.32 (≈ 85.8 µM) | 47.79 (≈ 169 µM) | CN(C)c1ccc(/C=C/C(=O)c2cc(O)ccc2O)cc1 | Dose-dependent effect | Dose-dependent effect
206.57 (≈ 693 µM) | 185.05 (≈ 620 µM) | 222.19 (≈ 745 µM) | 151.43 (≈ 508 µM) | COc1ccc(/C=C2\Oc3ccc(O)cc3C2=O)cc1OC [5-HYDROXY-3',4'-DIMETHOXY AURONE] | Dose-dependent effect | Dose-dependent effect
193.91 (≈ 689 µM) | 179.33 (≈ 637 µM) | 109.92 (≈ 391 µM) | 70.1 (≈ 249 µM) | CN(C)c1ccc(/C=C2\Oc3cc(O)ccc3C2=O)cc1 | Dose-dependent effect | Dose-dependent effect
174.07 (≈ 619 µM) | 149.98 (≈ 533 µM) | 243 (≈ 864 µM) | 64.16 (≈ 228 µM) | CN(C)c1ccc(/C=C2\Oc3ccc(O)cc3C2=O)cc1 | Dose-dependent effect | Dose-dependent effect
248.16 (≈ 832 µM) | 213.83 (≈ 717 µM) | 173.29 (≈ 581 µM) | 168.23 (≈ 564 µM) | COc1ccc(/C=C2\Oc3cc(O)ccc3C2=O)cc1OC | Dose-dependent effect | Dose-dependent effect
